Assay results as given in patent US5453518A, “Flavone derivatives” (Recordati S.A., Chemical and Pharmaceutical Company, priority 1992, dated 1995).
Where a name gives a salt, the structure may show the parent alone. Read-outs that look alike come from different tables or passages of the source.

What was measured:
[1] = system: rat bladder (K^+ -induced contractions); assay: Inhibition of K^+ -induced rat bladder contractions; design: species or system rat (male Sprague Dawley); settings: for IC50: 0.5 h, KCl 80 mM, 30 min after drug, isolated rat bladder; for activity of N-oxide compounds: in words, based on the Table
Protocol: Female Albino Swiss mice [Crl: CD-1 (ICR) BR] with a body weight of 20-30 g and male Sprague Dawley rats [Crl: CD° BR] with a body weight of 200-300 g, from the Charles River Farm, Italy, were used for the trials. The animals were housed with free access to food and water and kept on a forced light-darkness cycle at 22°-24° C. until the day of the trials. Male rats were killed by a blow on their heads and their lower abdomens were opened along the midlines. Their urinary bladders were removed by a transverse dissection above the trigone and cut into two fragments (20-30 mm long, 1-2 mm wide). Each fragment was suspended in an isolated organ bath containing 10 ml of a normal Tyrode solution (composition in mM: NaCl 137, KCl 2.68, MgCl2 1.11, CaCl2 1.8, NaH2 PO4 0.41, NaHCO3 11.9, glucose 5.55) and connected, under a steady 1 g load, to an isometric transducer (DY-1, Basile). The solution was gassed with a mixture of 95% O2 and 5% CO2 and heated at 37° C. After a 60 minute equilibration the tension responses to a single KCl dose (Bath concentration=80 mM) inducing phasic and tonic contractions were measured under isometric conditions at 30 minute intervals. After recording one or more reproducible responses, a solution of the test drug was added to the bath (final concentration from 10^-4 to 10^-9 M) and 30 minutes later a new contraction was induced. The experimental groups were made up of at least 2 preparations from different animals for each drug concentration tested. The IC50 values of the inhibition of the agonist-induced contractions were evaluated by linear regression analysis.

[2] = Acute toxicity in mice (LD50); assay type: in vivo; settings: mouse, in vivo, mice, death rate 7 days after administration
Protocol: (§1) Female Albino Swiss mice [Crl: CD-1 (ICR) BR] with a body weight of 20-30 g and male Sprague Dawley rats [Crl: CD° BR] with a body weight of 200-300 g, from the Charles River Farm, Italy, were used for the trials. The animals were housed with free access to food and water and kept on a forced light-darkness cycle at 22°-24° C. until the day of the trials.
(§2) The acute toxicity was evaluated in female Albino Swiss mice after intraperitoneal or oral administrations. Four logarithmic scaled doses of the compounds were dissolved or suspended in 0.5% aqueous Methocel and administered at a volume of 10 ml/kg to groups of 4 mice/dose. The death rate was recorded 7 days after the administration.
(§3) The LD50 values and the relevant confidence limits were calculated according to the method of Weil (Biometrics, 8, 249, 1952).

[3] = Stability at 37° C. and physiological pH (phosphate buffer, pH=7.4); assay type: physicochemical; settings: pH 7.4 phosphate buffer, read-out: Stability at pH 7.4, % Unchanged after 3 h
Source text: The stability of the other compounds of the invention was not investigated as they are known to be less subject to degradation than the esters.

[4] = system: Female Albino Swiss mice; assay: Acute toxicity in mice (LD50); assay type: in vivo; settings: in words; LD50/IC50 compared with Flavoxate
Protocol: as §1, §2, §3

[5] = phasic contraction, read-out: IC50, inhibition of K^+ -induced rat bladder contractions, Phasic
[6] = tonic contraction, read-out: IC50, inhibition of K^+ -induced rat bladder contractions, Tonic
[7] = ip, i.p., read-out: Mice LD50 i.p.
[8] = po, p.o., read-out: Mice LD50 p.o.

Structure (SMILES) | IC50 [1, 5] | IC50 [1, 6] | LD50 at 168 h [2, 7] | LD50 at 168 h [2, 8] | remaining at 3 h [3] | relative therapeutic index (LD50/IC50) versus Flavoxate [4] | activity of N-oxide compounds [1]
CCN(CCCOC(=O)c1cccc2c(=O)c(C)c(-c3ccccc3)oc12)C(C)Cc1ccc(OC)cc1.Cl (stereo not shown) [Example 6, 8-{3-[N-Ethyl-3-(4-methoxyphenyl)-2-propylamino]propoxycarbonyl}-3-methyl-4-oxo-2-phenyl-4H-1-benzopyran hydrochloride] | 1700 nM | 4200 nM | > 1000 mg/kg | > 3000 mg/kg | 99% | – | –
COc1ccc(C(C#N)(CCCN(C)CC(=O)NCc2cccc3c(=O)c(C)c(-c4ccccc4)oc23)C(C)C)cc1OC.Cl.O.O (stereo not shown) [Example 16, 8-{2-[4-Cyano-4-(3,4-dimethoxyphenyl)-N,5-dimethylhexylamino]-1-oxoethylaminomethyl}-3-methyl-4-oxo-2-phenyl-4H -1-benzopyran hydrochloride dihydrate] | 500 nM | 900 nM | 440 mg/kg | 1280 mg/kg | – | – | –
COc1ccc(C(C#N)(CCCN(C)CCCNC(=O)c2cccc3c(=O)c(C)c(-c4ccccc4)oc23)C(C)C)cc1OC (stereo not shown) [Example 11, 8-{3-[4-Cyano-4-(3,4-dimethoxyphenyl)-N,5-dimethylhexylamino]propylcarbamoyl}-3-methyl-4-oxo-2-phenyl-4H-1-benzopyran hydrochloride hemihydrate] | 600 nM | 500 nM | 224 mg/kg | 400 mg/kg | – | considerably safer than Flavoxate | –
COc1ccc(CCN(C)CCCOC(=O)c2cccc3c(=O)c(C)c(-c4ccccc4)oc23)cc1OC.Cl [Example 2, 8-{3-[2-(3,4-Dimethoxyphenyl)-N-methylethylamino]propoxycarbonyl}-3-methyl-4-oxo-2-phenyl-4H-1-benzopyran hydrochloride] | 1000 nM | 500 nM | 773 mg/kg | 2260 mg/kg | – | – | –
COc1ccc(C(C#N)(CCCN(C)CC(=O)N(C)Cc2cccc3c(=O)c(C)c(-c4ccccc4)oc23)C(C)C)cc1OC.Cl.O (stereo not shown) [Example 17, 8-{2-[4-Cyano-4-(3,4-dimethoxyphenyl)-N,5-dimethylhexylamino]-N-methyl-1-oxo-ethylaminomethyl}-3-methyl-4-oxo-2-phenyl-4H-1-benzopyran hydrochloride hydrate] | 200 nM | 400 nM | 334 mg/kg | 1710 mg/kg | – | – | –
COc1ccc(C(C#N)(CCCN(C)CCCOC(=O)c2cccc3c(=O)c(C)c(-c4ccccc4)oc23)C(C)C)cc1OC.Cl (stereo not shown) [Example 4, 8-{3-[4-Cyano-4-(3,4-dimethoxyphenyl)-N,5-dimethylhexylamino]propoxycarbonyl}-3-methyl-4-oxo-2-phenyl-4H-1-benzopyran hydrochloride] | 500 nM | 1300 nM | > 1000 mg/kg | > 3000 mg/kg | 100% | – | –
COc1ccc(CCN(C)CCCNC(=O)c2cccc3c(=O)c(C)c(-c4ccccc4)oc23)cc1OC [Example 12, 8-{3-[2-(3,4-Dimethoxyphenyl)-N-methylethylamino]propylcarbamoyl}-3-methyl-4-oxo-2-phenyl-4H -1-benzopyran hydrochloride 0.3-hydrate] | 2200 nM | 1400 nM | 129 mg/kg | 716 mg/kg | – | – | –
COc1ccc(C(C#N)(CCCN(C)CCNC(=O)c2cccc3c(=O)c(C)c(-c4ccccc4)oc23)C(C)C)cc1OC (stereo not shown) [Example 13, 8-{2-[4-Cyano-4-(3,4-dimethoxyphenyl)-N,5-dimethylhexylamino]ethylcarbamoyl}-3-methyl-4-oxo-2-phenyl-4H-1-benzopyran hydrochloride hemihydrate] | 300 nM | 100 nM | 422 mg/kg | – | – | – | –
COc1ccc(C(C#N)(CCCN(C)CCS(=O)(=O)Cc2cccc3c(=O)c(C)c(-c4ccccc4)oc23)C(C)C)cc1OC (stereo not shown) [Example 20, 8-{2-[4-Cyano-4-(3,4-dimethoxyphenyl)-5,N-dimethylhexylamino]ethylsulphonylmethyl}-3-methyl-4-oxo-2-phenyl-4H-1-benzopyran hydrochloride hemihydrate] | 500 nM | 500 nM | > 1000 mg/kg | > 3000 mg/kg | – | – | –
COc1ccc(C(C#N)(CCC[N+](C)([O-])CCCOC(=O)c2cccc3c(=O)c(C)c(-c4ccccc4)oc23)C(C)C)cc1OC (stereo not shown) [Example 5, 8-{3-[4-Cyano-4-(3,4-dimethoxyphenyl)-N,5-dimethyl-N-oxohexylamino]propoxycarbonyl}-3-methyl-4-oxo-2-phenyl-4H-1-benzopyran hydrochloride x 0.25 H2 O] | 10000 nM | 2200 nM | > 1000 mg/kg | > 3000 mg/kg | – | – | do not appear to be very active
COc1ccc(CC2c3cc(OC)c(OC)cc3CCN2CCCOC(=O)c2cccc3c(=O)c(C)c(-c4ccccc4)oc23)cc1OC (stereo not shown) [Example 7, 8-{3-[1-(3,4-Dimethoxybenzyl)-6,7-dimethoxy-2H-1,2,3,4-tetrahydro-2-isoquinolinyl]propoxycarbonyl}-3-methyl-4-oxo-2-phenyl-4H-1-benzopyran hydrochloride] | 1400 nM | 900 nM | > 1000 mg/kg | > 3000 mg/kg | 99% | – | –
COc1ccc(C(C#N)(CCCN(C)CCOCc2cccc3c(=O)c(C)c(-c4ccccc4)oc23)C(C)C)cc1OC.Cl.O (stereo not shown) [Example 18, 8-{2-[4-Cyano-4-(3,4-dimethoxyphenyl)-5,N-dimethylhexylamino]ethoxymethyl}-3-methyl-4-oxo-2-phenyl-4H-1-benzopyran hydrochloride hydrate] | 300 nM | 400 nM | 334 mg/kg | 974 mg/kg | – | – | –
COc1ccc(CC[N+](C)([O-])CCCOC(=O)c2cccc3c(=O)c(C)c(-c4ccccc4)oc23)cc1OC (stereo not shown) [Example 3, 8-{3-[2-(3,4-Dimethoxyphenyl)-N-methyl-N-oxoethylamino]-propoxycarbonyl}-3-methyl-4-oxo-2-phenyl-4H-1-benzopyran hydrochloride] | > 10000 nM | > 10000 nM | > 1000 mg/kg | > 3000 mg/kg | – | – | do not appear to be very active
COc1ccc(C(C#N)(CCCN(C)CCN(C)C(=O)c2cccc3c(=O)c(C)c(-c4ccccc4)oc23)C(C)C)cc1OC.Cl.O (stereo not shown) [Example 14, 8-{2-[4-Cyano-4-(3,4-dimethoxyphenyl)-N,5-dimethylhexylamino]-N-methylethylcarbamoyl}-3-methyl-4-oxo-2-phenyl-4H-1-benzopyran hydrochloride hydrate] | 100 nM | 100 nM | 159 mg/kg | 346 mg/kg | – | considerably safer than Flavoxate | –
COc1ccc(C(C#N)(CCCN(C)CC(=O)c2cccc3c(=O)c(C)c(-c4ccccc4)oc23)C(C)C)cc1OC.Cl.O (stereo not shown) [Example 1, 8-{2-[4-Cyano-4-(3,4-dimethoxyphenyl)-5,N-dimethylhexylamino]-1-oxoethyl}-3-methyl-4-oxo-2-phenyl-4H-1-benzopyran hydrochloride hydrate] | 10000 nM | > 10000 nM | 475 mg/kg | > 3000 mg/kg | – | – | –
COc1ccc(C(C#N)(CCCN(C)CCSCc2cccc3c(=O)c(C)c(-c4ccccc4)oc23)C(C)C)cc1OC.Cl (stereo not shown) [Example 19, 8-{2-[4-Cyano-4-(3,4-dimethoxyphenyl)-5,N-dimethylhexylamino]ethylthiomethyl}-3-methyl-4-oxo-2-phenyl-4H-1-benzopyran hydrochloride] | 500 nM | 1300 nM | > 1000 mg/kg | > 3000 mg/kg | – | – | –
